Reference: ChEMBL document CHEMBL4507291 (2021)

Columns and labels:
[1] = target: 5'-AMP-activated protein kinase catalytic subunit alpha-1 (Homo sapiens) (UniProt Q13131)
[2] = target: Tyrosine-protein kinase receptor UFO (Homo sapiens) (UniProt P30530)
[3] = test system: Serine/threonine-protein kinase B-raf (Homo sapiens), P15056 [V600E]
[4] = target: Casein kinase II subunit alpha' (Homo sapiens) (UniProt P19784)
[5] = target: Ephrin type-A receptor 4 (Homo sapiens) (UniProt P54764)
[6] = test system: T1, Receptor-type tyrosine-protein kinase FLT3 (Homo sapiens), P36888 [D835Y]
T1 sequence (whole entry): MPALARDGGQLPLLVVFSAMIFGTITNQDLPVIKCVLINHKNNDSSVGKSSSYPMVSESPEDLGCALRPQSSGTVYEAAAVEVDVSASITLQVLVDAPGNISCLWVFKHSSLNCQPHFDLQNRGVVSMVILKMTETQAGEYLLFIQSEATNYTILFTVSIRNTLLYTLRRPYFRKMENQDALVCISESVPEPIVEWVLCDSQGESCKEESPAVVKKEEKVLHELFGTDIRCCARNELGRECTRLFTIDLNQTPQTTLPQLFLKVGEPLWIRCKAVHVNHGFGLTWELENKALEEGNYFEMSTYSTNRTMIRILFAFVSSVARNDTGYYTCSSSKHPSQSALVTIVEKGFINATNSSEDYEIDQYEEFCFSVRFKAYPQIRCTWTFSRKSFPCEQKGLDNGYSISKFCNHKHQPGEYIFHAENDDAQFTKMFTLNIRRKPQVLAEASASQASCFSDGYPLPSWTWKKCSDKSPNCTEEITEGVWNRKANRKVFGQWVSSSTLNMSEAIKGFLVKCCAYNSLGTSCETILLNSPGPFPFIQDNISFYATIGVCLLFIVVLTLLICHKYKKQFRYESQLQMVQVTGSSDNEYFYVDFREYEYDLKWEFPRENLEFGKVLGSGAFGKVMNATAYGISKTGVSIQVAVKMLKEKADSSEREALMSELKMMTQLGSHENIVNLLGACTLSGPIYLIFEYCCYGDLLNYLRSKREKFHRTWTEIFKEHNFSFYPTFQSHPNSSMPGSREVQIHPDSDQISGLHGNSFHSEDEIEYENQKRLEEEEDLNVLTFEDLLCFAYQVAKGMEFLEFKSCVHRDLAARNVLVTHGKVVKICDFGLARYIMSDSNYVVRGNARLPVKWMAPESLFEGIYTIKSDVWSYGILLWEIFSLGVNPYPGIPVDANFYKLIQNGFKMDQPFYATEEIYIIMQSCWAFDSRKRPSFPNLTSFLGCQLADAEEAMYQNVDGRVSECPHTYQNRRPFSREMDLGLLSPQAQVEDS

[7] = target: Vascular endothelial growth factor receptor 3 (Homo sapiens) (UniProt P35916)
[8] = target: Tyrosine-protein kinase FRK (Homo sapiens) (UniProt P42685)
Chain of Tyrosine-protein kinase FRK (Homo sapiens) (P42685 whole entry): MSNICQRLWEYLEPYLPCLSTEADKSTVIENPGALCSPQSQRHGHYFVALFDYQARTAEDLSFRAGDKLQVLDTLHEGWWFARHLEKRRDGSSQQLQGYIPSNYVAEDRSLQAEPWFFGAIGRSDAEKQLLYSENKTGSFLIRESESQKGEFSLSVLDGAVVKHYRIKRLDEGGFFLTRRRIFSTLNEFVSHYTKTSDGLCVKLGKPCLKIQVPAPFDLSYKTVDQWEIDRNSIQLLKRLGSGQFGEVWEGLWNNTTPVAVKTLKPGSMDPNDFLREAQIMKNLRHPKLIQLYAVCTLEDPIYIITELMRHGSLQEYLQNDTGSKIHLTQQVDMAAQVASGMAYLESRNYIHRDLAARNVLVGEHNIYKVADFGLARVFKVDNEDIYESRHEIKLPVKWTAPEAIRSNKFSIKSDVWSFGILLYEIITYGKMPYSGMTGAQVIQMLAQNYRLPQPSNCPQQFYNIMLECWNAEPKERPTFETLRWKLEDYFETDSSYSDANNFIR

[9] = target: Insulin-like growth factor 1 receptor (Homo sapiens) (UniProt P08069)
[10] = target: Tyrosine-protein kinase Lck (Homo sapiens) (UniProt P06239)
[11] = target: Misshapen-like kinase 1 (Homo sapiens) (UniProt Q8N4C8)
[12] = target: Cyclin-dependent kinase 14 (Homo sapiens) (UniProt O94921)
Chain of Cyclin-dependent kinase 14 (Homo sapiens) (O94921 whole entry, the tested form may be a part): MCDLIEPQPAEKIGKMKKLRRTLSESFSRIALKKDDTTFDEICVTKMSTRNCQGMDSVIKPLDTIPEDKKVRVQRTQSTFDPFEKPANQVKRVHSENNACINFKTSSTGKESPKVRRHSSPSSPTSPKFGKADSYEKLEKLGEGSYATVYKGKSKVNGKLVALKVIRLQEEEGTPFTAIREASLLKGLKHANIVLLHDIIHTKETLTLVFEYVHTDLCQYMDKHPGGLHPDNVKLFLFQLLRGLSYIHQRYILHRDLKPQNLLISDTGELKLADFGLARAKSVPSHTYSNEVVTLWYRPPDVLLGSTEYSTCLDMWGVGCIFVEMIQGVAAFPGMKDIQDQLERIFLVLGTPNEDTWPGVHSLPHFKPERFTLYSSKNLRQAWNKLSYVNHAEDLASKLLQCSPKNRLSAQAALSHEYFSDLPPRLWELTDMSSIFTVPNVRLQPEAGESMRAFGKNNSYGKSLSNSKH

[13] = target: Phosphatidylinositol 4-phosphate 3-kinase C2 domain-containing subunit beta (Homo sapiens) (UniProt O00750)
[14] = target: Serine/threonine-protein kinase PLK4 (Homo sapiens) (UniProt O00444)
Chain of Serine/threonine-protein kinase PLK4 (Homo sapiens) (O00444 whole entry): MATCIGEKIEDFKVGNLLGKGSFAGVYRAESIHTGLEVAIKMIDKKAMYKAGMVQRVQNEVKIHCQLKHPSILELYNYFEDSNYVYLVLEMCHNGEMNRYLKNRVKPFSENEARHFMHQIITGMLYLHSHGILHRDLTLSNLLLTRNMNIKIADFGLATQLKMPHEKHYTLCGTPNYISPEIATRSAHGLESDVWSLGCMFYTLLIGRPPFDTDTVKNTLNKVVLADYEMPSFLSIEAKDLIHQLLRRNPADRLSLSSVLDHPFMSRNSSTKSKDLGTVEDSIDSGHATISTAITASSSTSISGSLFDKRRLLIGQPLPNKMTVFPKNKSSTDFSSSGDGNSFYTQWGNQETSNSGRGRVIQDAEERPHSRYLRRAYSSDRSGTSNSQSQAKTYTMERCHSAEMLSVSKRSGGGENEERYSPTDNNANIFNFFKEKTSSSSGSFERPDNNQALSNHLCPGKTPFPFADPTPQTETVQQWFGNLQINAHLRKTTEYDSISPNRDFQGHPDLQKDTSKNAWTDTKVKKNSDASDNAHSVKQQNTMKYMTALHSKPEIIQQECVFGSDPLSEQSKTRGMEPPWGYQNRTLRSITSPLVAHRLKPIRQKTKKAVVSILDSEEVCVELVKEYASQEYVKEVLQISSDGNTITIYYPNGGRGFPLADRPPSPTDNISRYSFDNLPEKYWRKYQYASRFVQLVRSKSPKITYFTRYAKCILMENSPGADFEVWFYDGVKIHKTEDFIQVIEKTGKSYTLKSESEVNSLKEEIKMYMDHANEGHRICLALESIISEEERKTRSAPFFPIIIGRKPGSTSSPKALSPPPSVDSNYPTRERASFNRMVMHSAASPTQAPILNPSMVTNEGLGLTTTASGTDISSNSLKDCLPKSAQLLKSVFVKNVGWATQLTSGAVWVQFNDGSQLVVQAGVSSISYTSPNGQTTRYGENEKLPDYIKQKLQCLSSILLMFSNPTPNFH

[15] = target: Protein kinase C delta type (Homo sapiens) (UniProt Q05655)
[16] = target: T2, cGMP-dependent protein kinase 2 (Homo sapiens) (UniProt Q13237)
T2 sequence (whole entry): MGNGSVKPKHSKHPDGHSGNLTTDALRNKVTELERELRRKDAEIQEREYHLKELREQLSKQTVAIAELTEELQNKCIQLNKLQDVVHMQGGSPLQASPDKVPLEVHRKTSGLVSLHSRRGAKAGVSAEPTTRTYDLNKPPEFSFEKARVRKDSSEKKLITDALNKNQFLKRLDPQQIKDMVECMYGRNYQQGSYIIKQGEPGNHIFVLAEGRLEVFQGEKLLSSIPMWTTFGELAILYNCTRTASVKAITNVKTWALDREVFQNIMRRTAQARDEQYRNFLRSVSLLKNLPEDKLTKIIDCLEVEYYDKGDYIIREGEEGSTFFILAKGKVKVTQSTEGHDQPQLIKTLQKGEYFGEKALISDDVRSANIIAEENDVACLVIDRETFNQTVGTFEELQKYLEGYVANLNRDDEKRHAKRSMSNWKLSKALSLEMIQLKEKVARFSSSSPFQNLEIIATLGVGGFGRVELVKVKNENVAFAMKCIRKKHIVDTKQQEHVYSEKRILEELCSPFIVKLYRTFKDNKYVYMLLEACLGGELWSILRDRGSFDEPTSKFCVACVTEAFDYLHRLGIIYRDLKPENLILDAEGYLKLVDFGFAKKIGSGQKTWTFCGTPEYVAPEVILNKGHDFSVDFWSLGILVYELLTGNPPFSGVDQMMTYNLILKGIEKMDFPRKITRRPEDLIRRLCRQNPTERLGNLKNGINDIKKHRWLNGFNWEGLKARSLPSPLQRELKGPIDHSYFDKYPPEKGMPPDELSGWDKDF

[17] = test system: Proto-oncogene tyrosine-protein kinase receptor Ret (Homo sapiens), P07949 [V804L]
Chain of Proto-oncogene tyrosine-protein kinase receptor Ret (Homo sapiens), P07949 [V804L] (P07949 whole entry V804L): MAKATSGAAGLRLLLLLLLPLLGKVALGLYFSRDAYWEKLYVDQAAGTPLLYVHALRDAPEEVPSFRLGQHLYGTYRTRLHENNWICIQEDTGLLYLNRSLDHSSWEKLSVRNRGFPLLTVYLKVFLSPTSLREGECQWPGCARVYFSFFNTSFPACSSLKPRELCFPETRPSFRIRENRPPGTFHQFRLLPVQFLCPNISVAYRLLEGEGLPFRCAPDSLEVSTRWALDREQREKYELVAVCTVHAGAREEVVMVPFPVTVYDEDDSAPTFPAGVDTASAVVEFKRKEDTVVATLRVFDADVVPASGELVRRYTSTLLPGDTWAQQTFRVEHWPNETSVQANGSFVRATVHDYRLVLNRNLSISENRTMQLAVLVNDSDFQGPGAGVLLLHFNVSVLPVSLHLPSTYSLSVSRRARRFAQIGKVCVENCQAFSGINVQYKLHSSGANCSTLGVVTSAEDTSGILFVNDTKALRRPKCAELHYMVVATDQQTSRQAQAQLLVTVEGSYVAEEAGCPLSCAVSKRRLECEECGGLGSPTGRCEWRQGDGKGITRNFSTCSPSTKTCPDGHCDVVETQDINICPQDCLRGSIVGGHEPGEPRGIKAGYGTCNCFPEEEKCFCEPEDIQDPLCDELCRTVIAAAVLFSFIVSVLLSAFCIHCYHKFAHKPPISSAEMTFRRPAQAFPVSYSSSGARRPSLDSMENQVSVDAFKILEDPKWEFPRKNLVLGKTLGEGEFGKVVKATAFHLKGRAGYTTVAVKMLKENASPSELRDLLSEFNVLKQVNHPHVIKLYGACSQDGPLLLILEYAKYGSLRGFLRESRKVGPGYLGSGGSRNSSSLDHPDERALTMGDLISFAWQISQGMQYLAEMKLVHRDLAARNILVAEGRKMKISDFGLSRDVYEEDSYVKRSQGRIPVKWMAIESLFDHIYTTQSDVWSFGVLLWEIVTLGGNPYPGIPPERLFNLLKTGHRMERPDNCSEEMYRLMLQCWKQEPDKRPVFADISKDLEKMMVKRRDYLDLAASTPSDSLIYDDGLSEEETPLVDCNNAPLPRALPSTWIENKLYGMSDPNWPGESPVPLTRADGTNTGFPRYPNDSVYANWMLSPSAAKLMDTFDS

[18] = target: Ribosomal protein S6 kinase alpha-3 (Homo sapiens) (UniProt P51812)
Chain of Ribosomal protein S6 kinase alpha-3 (Homo sapiens) (P51812 whole entry): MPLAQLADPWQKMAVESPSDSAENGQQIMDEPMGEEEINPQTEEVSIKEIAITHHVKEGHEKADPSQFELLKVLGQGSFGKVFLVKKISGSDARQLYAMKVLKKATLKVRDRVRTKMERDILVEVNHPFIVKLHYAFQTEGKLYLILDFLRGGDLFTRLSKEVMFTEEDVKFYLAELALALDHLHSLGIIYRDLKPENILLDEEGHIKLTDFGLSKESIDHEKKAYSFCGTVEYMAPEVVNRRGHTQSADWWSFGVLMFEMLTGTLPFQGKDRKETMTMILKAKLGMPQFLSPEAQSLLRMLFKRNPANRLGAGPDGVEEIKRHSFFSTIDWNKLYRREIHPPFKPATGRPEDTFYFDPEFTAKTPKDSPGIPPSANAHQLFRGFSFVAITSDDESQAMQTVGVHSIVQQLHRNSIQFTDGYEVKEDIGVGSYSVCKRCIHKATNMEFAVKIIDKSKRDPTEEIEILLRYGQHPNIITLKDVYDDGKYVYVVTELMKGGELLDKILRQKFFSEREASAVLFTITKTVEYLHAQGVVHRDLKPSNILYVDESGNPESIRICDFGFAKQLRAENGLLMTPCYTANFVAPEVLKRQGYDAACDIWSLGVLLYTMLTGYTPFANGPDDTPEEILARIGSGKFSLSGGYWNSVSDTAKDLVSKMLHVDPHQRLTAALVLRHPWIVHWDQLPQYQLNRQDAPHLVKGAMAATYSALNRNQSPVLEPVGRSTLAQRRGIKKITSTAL

[19] = target: Serine/threonine-protein kinase SBK1 (Homo sapiens) (UniProt Q52WX2)
Chain of Serine/threonine-protein kinase SBK1 (Homo sapiens) (Q52WX2 whole entry): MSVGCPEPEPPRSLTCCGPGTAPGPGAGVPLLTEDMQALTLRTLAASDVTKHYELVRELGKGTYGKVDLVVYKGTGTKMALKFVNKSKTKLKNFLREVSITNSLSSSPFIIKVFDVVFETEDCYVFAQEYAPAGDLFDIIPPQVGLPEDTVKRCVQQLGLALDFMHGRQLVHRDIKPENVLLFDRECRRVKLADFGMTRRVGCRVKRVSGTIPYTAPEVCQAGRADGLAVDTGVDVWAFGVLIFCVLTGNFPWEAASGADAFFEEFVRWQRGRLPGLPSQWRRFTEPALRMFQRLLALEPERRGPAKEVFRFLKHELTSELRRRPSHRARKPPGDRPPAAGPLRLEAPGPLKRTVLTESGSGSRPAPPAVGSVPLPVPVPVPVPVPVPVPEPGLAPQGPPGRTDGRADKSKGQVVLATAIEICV

[20] = target: SRSF protein kinase 2 (Homo sapiens) (UniProt P78362)
[21] = target: 5-hydroxytryptamine receptor 2A (Homo sapiens) (UniProt P28223); conditions: Compound concentration 10.0 uM
[22] = Compound concentration 100.0 nM
[23] = Compound concentration 1000.0 nM

Chain of Serine/threonine-protein kinase B-raf (Homo sapiens), P15056 [V600E] (P15056 whole entry V600E): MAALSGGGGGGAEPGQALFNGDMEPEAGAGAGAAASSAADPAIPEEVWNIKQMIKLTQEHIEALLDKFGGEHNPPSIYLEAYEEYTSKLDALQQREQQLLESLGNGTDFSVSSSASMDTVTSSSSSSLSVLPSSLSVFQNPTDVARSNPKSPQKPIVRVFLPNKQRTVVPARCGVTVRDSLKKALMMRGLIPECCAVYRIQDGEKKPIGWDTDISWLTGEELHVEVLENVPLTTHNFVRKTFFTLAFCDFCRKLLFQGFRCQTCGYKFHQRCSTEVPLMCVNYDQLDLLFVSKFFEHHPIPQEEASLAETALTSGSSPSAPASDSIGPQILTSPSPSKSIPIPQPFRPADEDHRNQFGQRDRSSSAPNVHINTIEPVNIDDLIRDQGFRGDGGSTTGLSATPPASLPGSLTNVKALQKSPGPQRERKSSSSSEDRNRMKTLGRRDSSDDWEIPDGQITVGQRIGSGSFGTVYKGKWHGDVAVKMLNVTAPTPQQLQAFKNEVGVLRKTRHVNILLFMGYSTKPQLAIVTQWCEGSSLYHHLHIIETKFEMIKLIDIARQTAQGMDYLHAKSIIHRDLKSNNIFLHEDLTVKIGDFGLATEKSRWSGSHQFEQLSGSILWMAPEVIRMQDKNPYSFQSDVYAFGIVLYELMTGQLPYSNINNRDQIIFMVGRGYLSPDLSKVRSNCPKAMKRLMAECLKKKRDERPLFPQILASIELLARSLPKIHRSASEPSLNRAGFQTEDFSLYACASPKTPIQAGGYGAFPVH

C[C@@H]1CN(c2cc(-c3n[nH]c4ccc(OC5(C)CC5)cc34)ncn2)C[C@H](C)O1 [MLi-2]
inactive: residual activity [1, 22] 86% | residual activity [2, 22] 100% | residual activity [3, 22] 89% | residual activity [4, 22] 100% | residual activity [5, 22] 89% | residual activity [6, 22] 100% | residual activity [7, 22] 100% | residual activity [8, 22] 100% | residual activity [9, 22] 100% | residual activity [10, 22] 100% | residual activity [11, 22] 84% | residual activity [12, 22] 100% | residual activity [13, 22] 66% | residual activity [14, 22] 71% | residual activity [15, 22] 100% | residual activity [16, 22] 79% | residual activity [17, 22] 98% | residual activity [18, 22] 85% | residual activity [19, 22] 88% | residual activity [20, 22] 79% | inhibition [21] 2.75%

C[C@@H]1CN(c2cc(-c3nn(C)c4ccc(OC5(C)CC5)cc34)ncn2)C[C@H](C)O1 [MLi-2-NC]
inactive: residual activity [1, 23] 93% | residual activity [2, 23] 100% | residual activity [3, 23] 91% | residual activity [4, 23] 86% | residual activity [5, 23] 100% | residual activity [6, 23] 100% | residual activity [7, 23] 85% | residual activity [8, 23] 100% | residual activity [9, 23] 100% | residual activity [10, 23] 94% | residual activity [11, 23] 66% | residual activity [12, 23] 100% | residual activity [13, 23] 70% | residual activity [14, 23] 65% | residual activity [15, 23] 100% | residual activity [16, 23] 85% | residual activity [17, 23] 72% | residual activity [18, 23] 91% | residual activity [19, 23] 62% | residual activity [20, 23] 88% | inhibition [21] 3.31%
